Reference: ChEMBL document CHEMBL5661955, “ASAP - In vitro cytotoxicity” (2024)
Several values for one entry are separate records, joined by “and”; a condition that tells them apart may be missing. Equal entries are not always repeated.

Legend:
[1] = Functional assay to measure dose dependent changes in cell viability from drug treatment in Vero E6 miRFP670 cells (cotreated with P-gp inhibitor, CP100356) that are infected with Dengue virus type 2 New Guinea C. […] Cytotoxicity is reported via via analysis of DAPI count using high-content imager. The assay has been performed by KU Leuven.; type: toxicity, cell-based, Vero C1008; conditions: chlorocebus sabaeus, with CP100356 (P-gp inhibitor, concentration not stated); p-gp concentration 500 nM
[2] = Functional metabolic assay to measure dose dependent changes in cell viability from drug treatment in Vero E6/TMPRSS2 cells (cotreated with P-gp inhibitor, Elacridar). […] Cytotoxicity is reported via measuring absorbance and analysis of MTT/MTS assays in uninfected cells. The assay has been performed by Icahn School of Medicine at Mount Sinai.; type: toxicity, cell-based, VeroE6/TMPRSS2; conditions: chlorocebus sabaeus, p-gp concentration 2 uM; for CC50: Vero E6/TMPRSS2 cells, with Elacridar (P-gp inhibitor, concentration not stated); for CC10: veroe6/tmprss2
[3] = (§1) Functional CPE-based assay to measure dose dependent changes in cell viability from drug treatment in Vero E6 miRFP670 cells (cotreated with P-gp inhibitor, CP100356). Cells are treated with antiviral candidates that have been serially diluted. Cytotoxicity is reported via analysis of MTS assays in uninfected cells. The assay has been performed by KU Leuven.; type: toxicity, Vero C1008; conditions: chlorocebus sabaeus, Vero E6 miRFP670 cells, with CP100356 (P-gp inhibitor, concentration not stated); p-gp concentration 500 nM
[4] = as §1, with “cells.” for “cells (cotreated with P-gp inhibitor, CP100356).”; type: toxicity, Vero C1008; conditions: chlorocebus sabaeus, Vero E6 miRFP670 cells

Row | SMILES | CC50 [1] | CC50 [2] | CC10 [2] | CC50 [3] | CC50 [4]
1 | COc1cc(Br)cc(C(=O)Nc2ccc3c(c2)CNC3)c1 | 27.5 µM | > 50 µM | 4.817 µM | 47.5 µM | –
2 | COCCNC(=O)[C@H](Nc1ccc2c(c1)CNC2)c1cc(Cl)cc(C2CC2)c1 | > 50 µM | > 50 µM | > 50 µM | > 50 µM | –
3 | O=C(Nc1ccc2c(c1)CNCC2)c1cc(Cl)cc2[nH]ncc12 | – | – | – | – | > 50 µM
4 | O=C(NC[C@H]1CCCO1)[C@H](Nc1ccc2c(c1)CNC2)c1cc(Cl)cc2[nH]ncc12 | > 50 µM | > 50 µM | > 50 µM | > 50 µM | –
5 | Cc1cc(C(=O)Nc2ccc3c(c2)CNC3)c2cn[nH]c2c1 | 24 µM | – | 24.901 µM and 9.914 µM | > 50 µM | –
6 | CC(C)(C)c1cc(Br)cc(C(=O)Nc2ccc3c(c2)CNC3)c1 | – | – | – | – | 5.77 µM
7 | CN1Cc2ccc(NC(=O)c3cc(Cl)cc4[nH]ncc34)cc2C1 | – | – | – | – | > 50 µM
8 | Cn1cc2cc(Cl)cc(C(=O)Nc3ccc4c(c3)CNC4)c2n1 | 3.58 µM | > 50 µM | > 50 µM | 2.75 µM | –
9 | O=C(Nc1ccc2c(c1)CNC2)c1cc(Br)cc2ccccc12 | – | – | – | – | 11.4 µM
10 | O=C(Nc1ccc2c(c1)CNC2)c1cc(Cl)cc2c1CCC2 | – | – | – | – | 18.4 µM
11 | Nc1cc(Cl)cc(C(=O)Nc2ccc3c(c2)CNC3)c1N | > 50 µM | > 50 µM | < 0.023 µM | > 50 µM | –
12 | N#CCCNC(=O)[C@H](Nc1ccc2c(c1)CNC2)c1cc(Cl)cc(C2CC2)c1 | 24.2 µM | > 50 µM | > 50 µM | > 50 µM | –
13 | O=C(Nc1ccc2c(c1)CNC2)c1cc(Br)cc2[nH]c([C@H]3CCOC3)nc12 | 3.68 µM | 26.1 µM | 0.852 µM | 5.11 µM | –
14 | CNC(=O)[C@H](Nc1ccc2c(c1)CNC2)c1cc(Cl)cc(C2CC2)c1 | > 50 µM | > 50 µM | > 50 µM | > 50 µM | –
15 | N#C[C@H](Nc1ccc2c(c1)CNC2)c1cc(Cl)cc(C2CC2)c1 | > 50 µM | > 50 µM | > 50 µM | 46.5 µM | –
16 | C=CC[C@H](Nc1ccc(-c2nn[nH]n2)cc1)c1cc(Cl)cc(NC(=O)OCc2ccccc2)c1 | 10.7 µM | – | – | – | 46.2 µM
17 | O=C(Nc1ccc2c(c1)CNC2)c1cc(F)cc2[nH]nnc12 | > 50 µM | > 50 µM | > 50 µM | > 50 µM | –
18 | CCCNC(=O)[C@H](Nc1cccc(-c2nn[nH]n2)c1)c1cc(Cl)cc(NC(=O)OCc2ccccc2)c1 | > 50 µM | – | – | – | > 50 µM
19 | CC(C)c1cc(Br)cc(C(=O)Nc2ccc3c(c2)CNC3)c1 | – | – | – | – | 11.5 µM
20 | O=C(NC1CCOCC1)[C@H](Nc1ccc2c(c1)CNC2)c1cc(Cl)cc(C2CC2)c1 | > 50 µM | > 50 µM | > 50 µM | 49.9 µM | –
21 | Cn1cc(CNC(=O)[C@H](Nc2ccc3c(c2)CNC3)c2cc(Cl)cc(C3CC3)c2)cn1 | > 50 µM | > 50 µM | – | > 50 µM | –
22 | Cn1cc(CCc2nc3c(C(=O)Nc4ccc5c(c4)CNC5)cc(Cl)cc3[nH]2)cn1 | > 50 µM | > 50 µM | 17.311 µM | > 50 µM | –
23 | O=C(Nc1ccc2c(c1)CNC2)c1cc(Br)cc2c1OCO2 | – | – | – | – | 23 µM
24 | O=C(Nc1ccc2c(c1)CNC2)c1cc(F)cc2[nH]ncc12 | > 50 µM | > 50 µM | > 50 µM | > 50 µM | –

Row | SMILES | CC50 [1] | CC50 [2] | CC10 [2] | CC50 [3] | CC50 [4]
25 | O=C(Nc1ccc2c(c1)CCNCC2)c1cc(Cl)cc2[nH]ncc12 | > 50 µM | 44.2 µM | 7.014 µM | > 50 µM | –
26 | O=C(NC[C@H]1CCCO1)[C@H](Nc1ccc2c(c1)CNC2)c1cc(Cl)cc(C2CC2)c1 | > 50 µM | > 50 µM | > 50 µM | 39.2 µM | –
27 | O=C(Nc1ccc(C2CNC2)cc1)c1cc(Cl)cc2[nH]ncc12 | > 50 µM | – | – | – | > 50 µM
28 | COC(=O)CNC(=O)[C@H](Nc1ccc2c(c1)CNC2)c1cc(Cl)cc(C2CC2)c1 | 2.05 µM | > 50 µM | – | > 50 µM | –
29 | Cc1ccc(NC(=O)c2cc(Cl)cc3[nH]ncc23)cc1CN | > 50 µM | > 50 µM | 0.133 µM | > 50 µM | –
30 | Cn1ncc2c(C(=O)Nc3ccc4c(c3)CNC4)cc(Br)cc21 | > 50 µM | – | – | – | > 50 µM
31 | O=C(NCc1ccc(F)cc1)[C@H](Nc1ccc2c(c1)CNC2)c1cc(Cl)cc2[nH]ncc12 | > 50 µM | – | > 50 µM | > 50 µM | –
32 | O=C(Nc1ccc2c(c1)CNC2)c1cc(Cl)cc2ccncc12 | > 50 µM | > 50 µM | > 50 µM | > 50 µM | –
33 | NCc1cc(/C=C/C(=O)O)cc(NC(=O)c2cc(Cl)cc(NC(=O)OCc3ccccc3)c2)c1 | 15.7 µM | – | – | – | > 50 µM
34 | N#Cc1cc(C(=O)Nc2ccc3c(c2)CNC3)cc(C(F)(F)F)c1 | 0.739 µM | > 50 µM | > 50 µM | > 50 µM | –
35 | C=CC[C@H](Nc1cc(Cl)cc(NC(=O)OCc2ccccc2)c1)c1ccc(-c2nn[nH]n2)cc1 | 7.62 µM | – | – | – | 14.6 µM
36 | O=C1Cc2c(cc(Br)cc2C(=O)Nc2ccc3c(c2)CNC3)N1 | 27.7 µM | > 50 µM | – | > 50 µM | –
37 | NCc1cccc(NC(=O)c2cc(Cl)cc3c2cnn3CC2CC2)c1 | 24.1 µM | – | – | – | 20.7 µM
38 | CC(C)Oc1ccc(S(=O)(=O)Nc2ccc(Cl)cc2C(=O)O)cc1 | – | – | – | – | > 50 µM
39 | N#C[C@H](Nc1cncc(-c2nn[nH]n2)c1)c1cc(Cl)cc(NC(=O)OCc2ccccc2)c1 | – | – | – | – | > 50 µM
40 | N[C@H]1Cc2ccc(NC(=O)c3cc(Cl)cc(NC(=O)OCc4ccccc4)c3)cc2C1 | 4.15 µM | – | – | – | 2.82 µM
41 | O=C(NS(=O)(=O)C1CC1)c1cc(Cl)ccc1NS(=O)(=O)c1ccc(Oc2ccccc2Cl)cc1 | > 50 µM | – | – | – | > 50 µM
42 | O=C(Nc1cc(Cl)cc([C@H]2[C@H](CO)[C@@H]2c2cccc(-c3nn[nH]n3)c2)c1)OCc1ccccc1 | – | – | – | – | > 50 µM
43 | O=C(Nc1cccc(-c2nnn[nH]2)c1)c1cc(Cl)cc2[nH]ncc12 | – | – | – | – | > 50 µM
44 | O=C(Nc1cc(Cl)cc(C(=O)Nc2cccc([C@H]3C[C@H]3C(=O)O)c2)c1)OCc1ccccc1 | – | – | – | – | > 50 µM
45 | COc1ccc(S(=O)(=O)Nc2cc(F)c(Cl)cc2C(=O)NCC(C)C)cc1 | – | – | – | – | 4.25 µM
46 | NCc1cccc(NC(=O)[C@H](NC(=O)OCc2ccccc2)c2ccc(Br)c(Cl)c2)c1 | 13.4 µM | – | – | – | 10 µM
47 | O=C(Nc1cc(Cl)cc(-c2ccc3[nH]nc(C(=O)O)c3c2)c1)OCc1ccccc1 | 13.6 µM | – | – | – | > 50 µM
48 | O=C(NCC1CC1)c1cc(Cl)ccc1NS(=O)(=O)c1ccc(Oc2ccccc2Cl)cc1 | – | – | – | – | 5.46 µM

Row | SMILES | CC50 [1] | CC50 [2] | CC10 [2] | CC50 [3] | CC50 [4]
49 | NCc1cccc(NC(=O)c2cc(Cl)cc(C(N)=O)c2)c1 | > 50 µM | – | – | – | > 50 µM
50 | NCc1cc(NC(=O)c2cc(Cl)cc(NC(=O)OCc3ccccc3)c2)cc([C@@H]2C[C@H]2C(=O)O)c1 | 21.8 µM | – | – | – | 9.99 µM
51 | COc1cccc(-c2ccc([C@@H](NC(=O)OCc3ccccc3)C(=O)Nc3cccc(CN)c3)cc2)c1 | 23.1 µM | – | – | – | 6.76 µM
52 | CCOCCNC(=O)c1cc(Cl)ccc1NS(=O)(=O)c1ccc(Oc2ccccc2Cl)cc1 | – | – | – | – | 8.81 µM
53 | CNC(=O)[C@H](Nc1cc(CN)cc(C(=O)O)c1)c1cc(Cl)cc(C2CC2)c1 | > 50 µM | – | – | – | > 50 µM
54 | O=C(Nc1cc(Cl)cc([C@H]2C[C@@H]2c2cccc(C3CCNCC3)c2)c1)OCc1ccccc1 | 3.44 µM | – | – | – | 1.23 µM
55 | CCNC(=O)Nc1cc(Cl)cc(C(=O)Nc2ccc3c(c2)CNCCO3)c1 | 35.3 µM | – | – | – | > 50 µM
56 | NCc1cccc(NC(=O)c2cc(Cl)cc(C3CC3)c2)c1 | – | – | – | – | 46.6 µM
57 | COc1cc(-c2cc(Cl)cc(NC(=O)OCc3ccccc3)c2)c(OC)cc1CC(=O)O | – | – | – | – | 49.8 µM
58 | CCNC(=O)Nc1cc(Cl)cc(C(=O)Nc2cccc(CN)c2)c1 | > 50 µM | – | – | – | > 50 µM
59 | OCC#C[C@H](Nc1ccc2c(c1)CNC2)c1cc(Cl)cc2[nH]ncc12 | > 50 µM | – | – | – | > 50 µM
60 | NCc1cccc(NC(=O)c2cc(Cl)cc3[nH]ncc23)c1 | – | – | – | – | > 50 µM
61 | O=C(NC1CCCCC1)c1cc(Cl)ccc1NS(=O)(=O)c1ccc(Oc2ccccc2Cl)cc1 | – | – | – | – | 3.46 µM
62 | O=C(Nc1cccc(-c2nnn[nH]2)c1)c1cc(Cl)cc(C2CC2)c1 | – | – | – | – | > 50 µM
63 | O=C(O)c1cc(Cl)c(F)cc1S(=O)(=O)Nc1ccc(Oc2ccccc2Cl)cc1 | > 50 µM | – | – | – | > 50 µM
64 | CC(=O)NCc1cccc(NC(=O)c2cc(Cl)cc(NC(=O)OCc3ccccc3)c2)c1 | – | – | – | – | 38 µM
65 | NCc1cccc(NC(=O)[C@@H](NC(=O)OCc2ccccc2)c2ccc(-c3cc4cccnc4s3)cc2)c1 | > 50 µM | – | – | – | 34.7 µM
66 | O=C(Nc1cc(Cl)cc(-c2cccc3c(C(=O)O)cccc23)c1)OCc1ccccc1 | – | – | – | – | < 0.391 µM
67 | NCc1cccc(NC(=O)[C@H](NC(=O)OCc2ccccc2)C2CCC(c3ccccc3)CC2)c1 (some centres not stated) | 11.5 µM | – | – | – | 4.58 µM
68 | NCc1cc(Cl)cc(C(=O)Nc2ccc3c(c2)CNC3)c1 | – | – | – | – | > 50 µM
69 | CCc1cc(C(=O)Nc2cccc(-c3nnn[nH]3)c2)sc1-c1ccc(Cl)cc1 | > 50 µM | > 50 µM | > 50 µM | 38.6 µM | –
70 | CNC(=O)[C@H](Nc1cc(CN)cc(C(=O)O)c1)c1cc(Cl)cc(NC(=O)OCc2ccccc2)c1 | > 50 µM | – | – | – | > 50 µM
71 | O=C(Nc1cc(Cl)cc(C(=O)Nc2ccc3c(c2)CNCC3)c1)OCc1ccccc1 | 3.27 µM | – | – | – | 2.85 µM
